Peptide text beside a SMILES is read from it. * marks the point of attachment. Paclitaxel(2'-O-succinyl) = CC(=O)O[C@H]1C(=O)[C@@]2(C)[C@H]([C@H](OC(=O)c3ccccc3)[C@]3(O)C[C@H](OC(=O)[C@H](OC(=O)CCC(=O)*)[C@@H](NC(=O)c4ccccc4)c4ccccc4)C(C)=C1C3(C)C)[C@]1(OC(C)=O)CO[C@@H]1C[C@@H]2O
Columns and labels:
[1] = tested on: A549 cells; assay: Tumor horizontal migration (scratch test); type: cell-based; settings: 48 h
Experimental: A549 cells in the logarithmic growth phase were taken, digested with trypsin to prepare a cell suspension, and 1 mL of the cell suspension was inoculated into a 24-well plate with 3.5×10^5 cells per well. The 24-well plate was incubated in a 37°C, 5% CO2 incubator for 24 h, then a scratch was made vertically along the horizontal line at the bottom of the plate using a 200 µL pipette tip (one scratch per well). The original medium was discarded, and the wells were washed twice with 1 mL PBS. A blank group, a positive drug group, and an administration group were set up. […] The cell migration status was photographed at 0 h and 48 h using a microscope (model: CKX31SF, manufacturer: OLYMPUS CORPORATION) at a magnification of 100×. Meanwhile, ImageJ 1.74V was used for quantitative calculation of the number of migrated tumor cells, and the results were expressed as mean ± SD (n = 3).

[2] = tested on: A549 cells; assay: Tumor vertical migration (Transwell chambers); type: cell-based; settings: 48 h
Experimental: A549 cells in the logarithmic growth phase were taken, digested with trypsin to prepare a cell suspension, and 100 µL of the cell suspension was inoculated into Transwell chambers with 3.5×10^4 cells per well. A blank group, a positive drug group, and an administration group were set up. […] 600 µL of F-12K medium containing 10% FBS was added to the 24-well plate holding the chambers. After incubation in a 37°C, 5% CO2 incubator for 48 h, the cells were fixed with methanol for 30 min and stained with crystal violet for 10 min. After staining, the cell migration status was photographed under a microscope (model: CKX31SF, manufacturer: OLYMPUS CORPORATION) at a magnification of 100×. Meanwhile, Photoshop 20.0.1 was used for quantitative calculation of the number of migrated tumor cells, and the results were expressed as mean ± SD (n = 3).

[3] = tested on: non-small cell lung cancer A549 xenograft tumors; assay: In vivo tumor-inhibitory activity of DOC-AI, A549 xenograft; design: species or system BALB/c nude mice; settings: 4 days on, 3 days off until day 21
Experimental: (§1) Non-small cell lung cancer A549 cells and human gastric cancer MKN-45 cells were preserved in F12-K medium containing 10% fetal bovine serum and 1% penicillin + streptomycin, and incubated at 37°C with 5% CO2 and 95% humidity. The aforementioned cells were cultured in T175 flasks with an experimental cell density of 80%. The aforementioned cell lines were mycoplasma-negative. Both A549 cells and MKN-45 cells were provided by Nanjing Anji Biotechnology Co., Ltd.
Non-small cell lung cancer A549 cells in the vigorous growth stage were taken and inoculated subcutaneously into the right axilla of BALB/c nude mice (Nanjing Zhonghua Biotechnology Co., Ltd.) under sterile conditions, with a cell inoculation amount of 1×10^7. The diameter of transplanted tumors in nude mice was measured with a vernier caliper. When the tumors grew to approximately 50 mm^3, 30 tumor-bearing nude mice with good growth status and relatively uniform tumor size were selected and divided into 5 groups, with 6 mice in each group. The administration frequency was continuous administration for 4 days followed by an interval of 3 days, and this cycle was repeated until day 21. The anti-tumor effect in the nude mice was dynamically observed by measuring the tumor diameter. The tumor diameter was measured every other day, and the body weight of the nude mice was weighed simultaneously during the measurement of the tumor diameter. After 21 days of administration, the nude mice were euthanized, the tumor inhibition rate (%) was calculated, and the tumor masses were peeled off and weighed. Table 2 Detection of In Vivo Tumor-Inhibitory Activity of DOC-AI

[4] = tested on: gastric cancer MKN45 xenograft tumors; assay: In vivo tumor-inhibitory activity of DOC-AI, MKN45 xenograft; design: species or system BALB/c nude mice; Tumor Weight: unit not given here; settings: 6.20 µmol/Kg
Experimental: as §1
Gastric cancer MKN45 cells in the vigorous growth stage were taken and inoculated subcutaneously into the right axilla of BALB/c nude mice (Hangzhou Ziyuan Laboratory Animal Technology Co., Ltd.) under sterile conditions, with a cell inoculation amount of 1×10^7. The diameter of transplanted tumors in nude mice was measured with a vernier caliper. When the tumors grew to approximately 50 mm^3, 18 tumor-bearing nude mice with good growth status and relatively uniform tumor size were selected and divided into 3 groups, with 6 mice in each group. The administration frequency was once every 3 days, and this cycle was repeated until day 21. The anti-tumor effect in the nude mice was dynamically observed by measuring the tumor diameter. The tumor diameter was measured every other day, and the body weight of the nude mice was weighed simultaneously during the measurement of the tumor diameter. After 21 days of administration, the nude mice were euthanized, the tumor inhibition rate (%) was calculated, and the tumor masses were peeled off and weighed. Table 7 Results of Detection of In Vivo Tumor-Inhibitory Activity of DOC-AI

[5] = tested on: human gastric cancer cell MKN45 xenograft tumors; assay: In vivo tumor-inhibitory activity of PTX-AI, MKN45 xenograft; design: species or system BALB/c nude mice; settings: 21 days; for Final Tumor Volume: in mm³ (unit assumed)
Experimental: as §1
Human gastric cancer cells MKN-45 in the vigorous growth stage were taken and inoculated subcutaneously into the right axilla of BALB/c nude mice under sterile conditions, with a cell inoculation amount of 5×10^6. The diameter of transplanted tumors in nude mice was measured with a vernier caliper. When the tumors grew to approximately 50mm^3, […] tumor-bearing nude mice with good growth status and relatively uniform tumor size were selected, and divided into 6 groups, including 10 mice in the model group and 8 mice in each of the remaining groups. The anti-tumor effect of the test substance was dynamically observed by measuring the tumor diameter. The tumor diameter was measured every other day, and the body weight of the nude mice was weighed simultaneously during the measurement of the tumor diameter. After 21 days of administration, the nude mice were euthanized, the tumor inhibition rate (%) was calculated, and the tumor masses were peeled off and weighed. Table 3 Detection of In Vivo Tumor-Inhibitory Activity of PTX-AI

[6] = MKN45 xenograft, once every 3 days until day 21
[7] = 2.64 µmol/Kg, once every other day
[8] = 4.07 µmol/Kg, once every other day
[9] = 5.28 µmol/Kg, continuous administration for 4 days a week
[10] = 7.92 µmol/Kg, once every other day

SMILES: CC(=O)O[C@@]12CO[C@@H]1C[C@H](O)[C@@]1(C)C(=O)[C@H](O)C3=C(C)[C@@H](OC(=O)[C@H](OC(=O)CCC(=O)N[C@@H](CCCNC(=N)N)C(=O)N[C@@H](CO)C(=O)N4CCC[C@H]4C(=O)N[C@@H](Cc4ccc(O)cc4)C(=O)N[C@@H](C)C(=O)N[C@@H](CC(N)=O)C(=O)N[C@@H](CO)C(=O)O)[C@@H](NC(=O)OC(C)(C)C)c4ccccc4)C[C@@](O)([C@@H](OC(=O)c4ccccc4)[C@H]21)C3(C)C [DOC-AI]
- horizontal migration rate ([1]; 1 nM DOC-AI compared with 100 nM DOC): lower than that of 100 nM DOC
- horizontal migration of A549 cells ([1]; 100 nM, 10 nM, 1 nM, compared with the blank group): effectively inhibited the horizontal migration of A549 cells in a concentration-dependent manner
- vertical migration rate ([2]; 10 nM DOC-AI compared with 10 nM DOC): lower than that of 10 nM DOC
- vertical migration of A549 cells ([2]; 1 µM, 100 nM, 10 nM, 1 nM, compared with the blank group): effectively inhibited the vertical migration of A549 cells in a concentration-dependent manner
- effective concentration (vertical migration) ([2]; A549, lowest effective concentration): 1 nM
- Final Tumor Volume ([3]; 6.20 µmol/Kg): 73.75±23.01
- Tumor Inhibition Rate ([3]; 6.20 µmol/Kg): 90.40%
- Tumor Weight ([3]; 6.20 µmol/Kg): 81.00 ± 40.81 mg
- Final Tumor Volume ([3]; 12.40 µmol/Kg): 31.31±22.73
- Tumor Inhibition Rate ([3]; 12.40 µmol/Kg): 95.33%
- Tumor Weight ([3]; 12.40 µmol/Kg): 51.83 ± 31.36 mg
- Final Tumor Volume ([3]; 24.80 µmol/Kg): 20.30±20.80
- Tumor Inhibition Rate ([3]; 24.80 µmol/Kg): 97.33%
- Tumor Weight ([3]; 24.80 µmol/Kg): 20.53 ± 20.80 mg
- body weight changes ([4]; MKN45 xenograft nude mice, during the administration period): no significant weight loss was observed
- Tumor Inhibition Rate [4, 6]: 84.25±9.15%
- Tumor Weight [4, 6]: 204.34±54.48
- Final Tumor Volume ([4]; MKN45 xenograft, once every 3 days until day 21, in mm³ (unit assumed)): 191.31±54.48

SMILES: CC(=O)O[C@H]1C(=O)[C@@]2(C)[C@H]([C@H](OC(=O)c3ccccc3)[C@]3(O)C[C@H](OC(=O)[C@H](OC(=O)CCC(=O)N[C@@H](CCCNC(=N)N)C(=O)N[C@@H](CO)C(=O)N4CCC[C@H]4C(=O)N[C@@H](Cc4ccc(O)cc4)C(=O)N[C@@H](C)C(=O)N[C@@H](CC(N)=O)C(=O)N[C@@H](CO)C(=O)O)[C@@H](NC(=O)c4ccccc4)c4ccccc4)C(C)=C1C3(C)C)[C@]1(OC(C)=O)CO[C@@H]1C[C@@H]2O [PTX-AI] ({Paclitaxel(2'-O-succinyl)}-RSPYANS-OH)
- Tumor Inhibition Rate [5, 7]: 36.3%
- Tumor Weight [5, 7]: 0.961 ± 0.119 g
- Final Tumor Volume [5, 7]: 934.0±125.0
- Tumor Inhibition Rate [5, 8]: 42.9%
- Tumor Weight [5, 8]: 0.861 ± 0.126 g
- Final Tumor Volume [5, 8]: 852.1±137.3
- Tumor Inhibition Rate [5, 9]: 53.3%
- Tumor Weight [5, 9]: 0.705 ± 0.066 g
- Final Tumor Volume [5, 9]: 700.6±59.6
- Tumor Inhibition Rate [5, 10]: 60.8%
- Tumor Weight [5, 10]: 0.591 ± 0.099 g
- Final Tumor Volume [5, 10]: 579.8±91.9

Reference: EP4725507A1, “POLYPEPTIDE CONJUGATE, PHARMACEUTICAL COMPOSITION CONTAINING POLYPEPTIDE CONJUGATE AND USE THEREOF” (Nanjing Anji Biotechnology Co., Ltd., priority 2023, dated 2025)
